From publication PMC9986241 (Signal Transduction and Targeted Therapy, 2023)

Assays:
Experiment in all cases: KinaseProfiler enzyme profiling
Assay type in all cases: biochemical
CDK9/cyclin T1(h) = target: T1, CDK9/cyclin T1(h) (Homo sapiens, UniProt P50750)
T1 construct: purchased Eurofins KinaseProfiler
Experimental: (§1) Enzyme profiling services were provided by KinaseProfiler™ (Eurofin, Brussels, Belgium). The concentration of erianin was 100 nM, and total 70 kinases were tested in this in vitro screening and profiling services (2 repetitions). For more details, refer to the manufacturer’s instructions (www.eurofinsdiscoveryservices.com).

MAPK2(h) = target: T2, MAPK2(h) (Homo sapiens, UniProt P28482)
T2 construct: purchased Eurofins KinaseProfiler
T2 sequence (P28482 whole entry): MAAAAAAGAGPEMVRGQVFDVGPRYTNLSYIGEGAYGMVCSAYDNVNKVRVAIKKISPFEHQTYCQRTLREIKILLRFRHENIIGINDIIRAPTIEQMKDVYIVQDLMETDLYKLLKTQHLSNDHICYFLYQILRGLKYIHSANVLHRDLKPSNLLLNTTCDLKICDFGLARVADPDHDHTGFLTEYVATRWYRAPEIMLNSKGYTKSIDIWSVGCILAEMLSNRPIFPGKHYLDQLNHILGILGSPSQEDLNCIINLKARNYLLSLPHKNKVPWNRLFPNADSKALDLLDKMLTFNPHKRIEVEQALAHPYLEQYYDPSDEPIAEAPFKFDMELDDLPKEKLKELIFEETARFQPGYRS
Experimental: as §1

PAK2(h) = target: T3, PAK2(h) (Homo sapiens, UniProt Q13177)
T3 construct: purchased Eurofins KinaseProfiler
T3 sequence (Q13177 whole entry): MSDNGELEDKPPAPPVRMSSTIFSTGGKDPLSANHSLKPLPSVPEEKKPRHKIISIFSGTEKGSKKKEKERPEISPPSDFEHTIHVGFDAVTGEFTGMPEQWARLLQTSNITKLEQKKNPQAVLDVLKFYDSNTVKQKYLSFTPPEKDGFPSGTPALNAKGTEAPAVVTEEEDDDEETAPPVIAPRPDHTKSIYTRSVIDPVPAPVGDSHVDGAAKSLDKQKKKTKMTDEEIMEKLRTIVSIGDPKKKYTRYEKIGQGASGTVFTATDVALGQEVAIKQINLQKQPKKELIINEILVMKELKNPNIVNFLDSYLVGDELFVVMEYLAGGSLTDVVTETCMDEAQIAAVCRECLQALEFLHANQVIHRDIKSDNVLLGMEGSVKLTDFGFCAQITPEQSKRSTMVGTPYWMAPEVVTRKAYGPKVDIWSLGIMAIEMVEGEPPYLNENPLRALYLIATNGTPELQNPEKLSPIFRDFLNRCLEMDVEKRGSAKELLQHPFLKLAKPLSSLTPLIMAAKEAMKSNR
Experimental: as §1

PAK1(h) = target: T4, PAK1(h) (Homo sapiens, UniProt Q13153)
T4 construct: purchased Eurofins KinaseProfiler
Experimental: as §1

IKKα(h) = target: T5, IKKα(h) (Homo sapiens, UniProt O15111)
T5 construct: purchased Eurofins KinaseProfiler
T5 sequence (O15111 1-745): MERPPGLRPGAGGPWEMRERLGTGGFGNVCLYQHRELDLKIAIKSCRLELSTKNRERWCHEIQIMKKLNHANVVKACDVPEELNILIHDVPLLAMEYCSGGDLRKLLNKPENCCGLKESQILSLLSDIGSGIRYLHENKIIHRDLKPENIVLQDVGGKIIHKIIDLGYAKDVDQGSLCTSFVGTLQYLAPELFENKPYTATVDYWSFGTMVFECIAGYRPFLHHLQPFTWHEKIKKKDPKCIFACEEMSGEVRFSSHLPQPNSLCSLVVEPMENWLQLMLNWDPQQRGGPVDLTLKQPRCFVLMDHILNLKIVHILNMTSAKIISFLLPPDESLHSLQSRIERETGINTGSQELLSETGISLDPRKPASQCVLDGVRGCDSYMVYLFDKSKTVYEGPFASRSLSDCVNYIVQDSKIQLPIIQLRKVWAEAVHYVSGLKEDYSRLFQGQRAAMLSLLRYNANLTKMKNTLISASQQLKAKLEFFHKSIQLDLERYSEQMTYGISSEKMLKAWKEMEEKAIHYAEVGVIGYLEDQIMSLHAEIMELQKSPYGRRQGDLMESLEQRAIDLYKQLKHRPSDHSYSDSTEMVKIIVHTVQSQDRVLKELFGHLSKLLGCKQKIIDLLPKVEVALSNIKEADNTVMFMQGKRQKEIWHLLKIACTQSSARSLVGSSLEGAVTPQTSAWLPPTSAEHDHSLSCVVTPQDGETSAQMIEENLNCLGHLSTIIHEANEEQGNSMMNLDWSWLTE
Experimental: as §1

PKBα(h) = target: T6, PKBα(h) (Homo sapiens, UniProt P31749)
T6 construct: purchased Eurofins KinaseProfiler
T6 sequence (P31749 whole entry): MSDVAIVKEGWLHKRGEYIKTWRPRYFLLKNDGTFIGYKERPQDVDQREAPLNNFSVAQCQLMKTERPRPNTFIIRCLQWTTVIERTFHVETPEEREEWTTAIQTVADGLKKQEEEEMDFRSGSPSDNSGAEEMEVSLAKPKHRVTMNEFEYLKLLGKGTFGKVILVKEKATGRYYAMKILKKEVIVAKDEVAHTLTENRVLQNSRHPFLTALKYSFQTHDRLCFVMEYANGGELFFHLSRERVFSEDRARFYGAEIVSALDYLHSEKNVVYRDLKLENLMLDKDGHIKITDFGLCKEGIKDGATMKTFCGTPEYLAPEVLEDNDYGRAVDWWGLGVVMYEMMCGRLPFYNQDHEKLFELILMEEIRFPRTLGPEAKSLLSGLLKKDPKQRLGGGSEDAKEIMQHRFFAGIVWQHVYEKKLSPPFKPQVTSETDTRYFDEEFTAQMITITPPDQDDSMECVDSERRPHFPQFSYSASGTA
Experimental: as §1

ROCK-II(h) = target: T7, ROCK-II(h) (Homo sapiens, UniProt O75116)
T7 construct: purchased Eurofins KinaseProfiler
Experimental: as §1

CDK6/cyclinD3(h) = target: T8, CDK6/cyclinD3(h) (Homo sapiens, UniProt Q00534)
T8 construct: purchased Eurofins KinaseProfiler
Experimental: as §1

EGFR(h) = target: T9, EGFR(h) (Homo sapiens, UniProt P00533)
T9 construct: purchased Eurofins KinaseProfiler
Experimental: as §1

MAPK1(h) = target: T10, MAPK1(h) (Homo sapiens, UniProt P27361)
T10 construct: purchased Eurofins KinaseProfiler
T10 sequence (P27361 whole entry): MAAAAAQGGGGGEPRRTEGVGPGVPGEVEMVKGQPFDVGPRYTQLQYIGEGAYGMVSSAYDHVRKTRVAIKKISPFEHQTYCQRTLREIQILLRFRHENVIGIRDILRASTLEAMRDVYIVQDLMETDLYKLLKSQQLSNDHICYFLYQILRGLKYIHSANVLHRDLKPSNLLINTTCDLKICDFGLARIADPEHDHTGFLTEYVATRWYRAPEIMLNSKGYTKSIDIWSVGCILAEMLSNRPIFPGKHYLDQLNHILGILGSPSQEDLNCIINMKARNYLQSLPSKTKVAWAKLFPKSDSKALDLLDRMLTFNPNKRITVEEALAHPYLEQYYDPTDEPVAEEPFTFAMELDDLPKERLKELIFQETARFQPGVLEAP
Experimental: as §1

cSRC(h) = target: T11, cSRC(h) (Homo sapiens, UniProt P12931)
T11 construct: purchased Eurofins KinaseProfiler
Experimental: as §1

JAK1(h) = target: T12, JAK1(h) (Homo sapiens, UniProt P23458)
T12 construct: purchased Eurofins KinaseProfiler
T12 sequence (P23458 whole entry): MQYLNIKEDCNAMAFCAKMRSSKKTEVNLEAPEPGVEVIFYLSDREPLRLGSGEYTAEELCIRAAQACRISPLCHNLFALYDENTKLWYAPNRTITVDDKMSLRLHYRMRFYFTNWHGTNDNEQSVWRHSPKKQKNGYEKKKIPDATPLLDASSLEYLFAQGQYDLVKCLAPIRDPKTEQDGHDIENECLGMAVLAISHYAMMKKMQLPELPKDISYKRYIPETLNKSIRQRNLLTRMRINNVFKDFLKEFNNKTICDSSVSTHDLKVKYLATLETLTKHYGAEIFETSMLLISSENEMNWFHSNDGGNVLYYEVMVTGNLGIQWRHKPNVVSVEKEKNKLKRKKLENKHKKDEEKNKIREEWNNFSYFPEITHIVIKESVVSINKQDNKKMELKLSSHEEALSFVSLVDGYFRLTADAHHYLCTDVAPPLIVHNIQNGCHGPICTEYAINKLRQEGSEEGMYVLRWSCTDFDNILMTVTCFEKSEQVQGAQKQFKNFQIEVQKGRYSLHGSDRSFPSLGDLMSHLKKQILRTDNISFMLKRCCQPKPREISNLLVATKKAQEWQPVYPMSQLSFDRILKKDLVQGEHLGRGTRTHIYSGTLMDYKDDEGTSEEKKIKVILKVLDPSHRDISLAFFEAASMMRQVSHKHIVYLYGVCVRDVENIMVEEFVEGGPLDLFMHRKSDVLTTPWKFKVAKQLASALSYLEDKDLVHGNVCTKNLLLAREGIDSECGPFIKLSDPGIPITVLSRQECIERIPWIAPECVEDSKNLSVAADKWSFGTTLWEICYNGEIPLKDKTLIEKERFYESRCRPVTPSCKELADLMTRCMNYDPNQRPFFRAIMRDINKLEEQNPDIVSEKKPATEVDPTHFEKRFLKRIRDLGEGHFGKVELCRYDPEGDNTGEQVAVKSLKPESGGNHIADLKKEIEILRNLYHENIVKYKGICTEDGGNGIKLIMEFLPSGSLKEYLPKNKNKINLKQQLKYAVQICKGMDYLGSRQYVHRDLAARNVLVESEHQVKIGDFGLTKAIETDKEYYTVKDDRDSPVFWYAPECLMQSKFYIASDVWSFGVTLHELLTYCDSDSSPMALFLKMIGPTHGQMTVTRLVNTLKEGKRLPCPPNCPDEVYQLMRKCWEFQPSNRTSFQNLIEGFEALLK
Experimental: as §1

AMPKα2(h) = target: T13, AMPKα2(h) (Homo sapiens, UniProt P54646)
T13 construct: purchased Eurofins KinaseProfiler
Experimental: as §1

JNK1α1(h) = target: T14, JNK1α1(h) (Homo sapiens, UniProt P45983)
T14 construct: purchased Eurofins KinaseProfiler
Experimental: as §1

PAK4(h) = target: T15, PAK4(h) (Homo sapiens, UniProt O96013)
T15 construct: purchased Eurofins KinaseProfiler
T15 sequence (O96013 whole entry): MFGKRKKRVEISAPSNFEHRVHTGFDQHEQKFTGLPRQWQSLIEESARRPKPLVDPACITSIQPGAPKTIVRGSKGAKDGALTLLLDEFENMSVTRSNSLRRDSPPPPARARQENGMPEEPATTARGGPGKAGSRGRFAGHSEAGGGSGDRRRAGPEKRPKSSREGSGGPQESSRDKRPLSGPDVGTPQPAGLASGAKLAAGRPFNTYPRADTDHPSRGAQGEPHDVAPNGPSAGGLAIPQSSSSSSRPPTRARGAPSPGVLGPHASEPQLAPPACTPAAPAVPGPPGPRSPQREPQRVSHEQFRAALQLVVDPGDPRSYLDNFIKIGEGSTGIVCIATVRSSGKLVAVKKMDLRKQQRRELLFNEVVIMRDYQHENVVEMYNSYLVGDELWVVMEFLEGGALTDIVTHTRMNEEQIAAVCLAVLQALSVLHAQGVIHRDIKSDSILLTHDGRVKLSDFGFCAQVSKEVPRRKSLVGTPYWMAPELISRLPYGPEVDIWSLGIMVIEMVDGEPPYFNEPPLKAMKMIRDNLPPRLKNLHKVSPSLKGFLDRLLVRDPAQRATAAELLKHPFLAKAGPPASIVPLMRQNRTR
Experimental: as §1

SAPK4(h) = target: T16, SAPK4(h) (Homo sapiens, UniProt O15264)
T16 construct: purchased Eurofins KinaseProfiler
Experimental: as §1

FAK(h) = target: T17, FAK(h) (Homo sapiens, UniProt Q05397)
T17 construct: purchased Eurofins KinaseProfiler
Experimental: as §1

p70S6K(h) = target: T18, p70S6K(h) (Homo sapiens, UniProt P23443)
T18 construct: purchased Eurofins KinaseProfiler
Experimental: as §1

JAK2(h) = target: T19, JAK2(h) (Homo sapiens, UniProt O60674)
T19 construct: purchased Eurofins KinaseProfiler
Experimental: as §1

CDK2/cyclinA(h) = target: T20, CDK2/cyclinA(h) (Homo sapiens, UniProt P24941)
T20 construct: purchased Eurofins KinaseProfiler
Experimental: as §1

PDGFRβ(h) = target: T21, PDGFRβ(h) (Homo sapiens, UniProt P09619)
T21 construct: purchased Eurofins KinaseProfiler
Experimental: as §1

JNK3(h) = target: T22, JNK3(h) (Homo sapiens, UniProt P53779)
T22 construct: purchased Eurofins KinaseProfiler
Experimental: as §1

MEK1(h) = target: T23, MEK1(h) (Homo sapiens, UniProt Q02750)
T23 construct: purchased Eurofins KinaseProfiler
T23 sequence (Q02750 whole entry): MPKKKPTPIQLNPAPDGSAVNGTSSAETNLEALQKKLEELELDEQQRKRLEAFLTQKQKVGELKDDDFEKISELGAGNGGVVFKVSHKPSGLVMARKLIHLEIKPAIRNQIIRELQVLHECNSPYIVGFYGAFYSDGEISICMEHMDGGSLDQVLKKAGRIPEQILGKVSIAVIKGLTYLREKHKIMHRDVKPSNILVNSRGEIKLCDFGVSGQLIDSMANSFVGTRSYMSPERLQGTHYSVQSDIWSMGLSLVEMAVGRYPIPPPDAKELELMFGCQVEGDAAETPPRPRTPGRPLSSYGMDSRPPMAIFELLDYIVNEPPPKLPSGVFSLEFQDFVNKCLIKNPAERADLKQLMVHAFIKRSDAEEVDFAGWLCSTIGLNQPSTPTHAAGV
Experimental: as §1

SAPK3(h) = target: T24, SAPK3(h) (Homo sapiens, UniProt P53778)
T24 construct: purchased Eurofins KinaseProfiler
Experimental: as §1

CDK3/cyclinE(h) = target: T25, CDK3/cyclinE(h) (Homo sapiens, UniProt Q00526)
T25 construct: purchased Eurofins KinaseProfiler
Experimental: as §1

ROCK-I(h) = target: T26, ROCK-I(h) (Homo sapiens, UniProt Q13464)
T26 construct: purchased Eurofins KinaseProfiler
Experimental: as §1

GSK3β(h) = target: T27, GSK3β(h) (Homo sapiens, UniProt P49841)
T27 construct: purchased Eurofins KinaseProfiler
Experimental: as §1

FGFR1(h) = target: T28, FGFR1(h) (Homo sapiens, UniProt P11362)
T28 construct: purchased Eurofins KinaseProfiler
Experimental: as §1

B-Raf(h) = target: T29, B-Raf(h) (Homo sapiens, UniProt P15056)
T29 construct: purchased Eurofins KinaseProfiler
Experimental: as §1

Pim-1(h) = target: T30, Pim-1(h) (Homo sapiens, UniProt P11309)
T30 construct: purchased Eurofins KinaseProfiler
Experimental: as §1

c-RAF(h) = target: T31, c-RAF(h) (Homo sapiens, UniProt P04049)
T31 construct: purchased Eurofins KinaseProfiler
Experimental: as §1

EGFR(T790M,L858R)(h) = target: T32, EGFR(T790M,L858R)(h) (Homo sapiens, UniProt P00533, L858R/T790M)
T32 construct: purchased Eurofins KinaseProfiler
Experimental: as §1

T1 sequence (P50750 whole entry): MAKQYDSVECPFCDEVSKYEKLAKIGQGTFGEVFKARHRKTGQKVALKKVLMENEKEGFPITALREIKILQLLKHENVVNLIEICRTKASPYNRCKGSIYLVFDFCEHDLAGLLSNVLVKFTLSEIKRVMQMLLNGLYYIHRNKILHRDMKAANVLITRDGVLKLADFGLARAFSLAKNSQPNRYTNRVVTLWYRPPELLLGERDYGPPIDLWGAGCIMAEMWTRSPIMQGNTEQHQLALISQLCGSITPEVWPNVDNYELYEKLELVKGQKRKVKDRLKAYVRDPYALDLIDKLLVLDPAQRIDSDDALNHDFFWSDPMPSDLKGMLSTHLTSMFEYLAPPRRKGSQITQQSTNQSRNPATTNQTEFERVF
T1 sequence (O60563 whole entry partner): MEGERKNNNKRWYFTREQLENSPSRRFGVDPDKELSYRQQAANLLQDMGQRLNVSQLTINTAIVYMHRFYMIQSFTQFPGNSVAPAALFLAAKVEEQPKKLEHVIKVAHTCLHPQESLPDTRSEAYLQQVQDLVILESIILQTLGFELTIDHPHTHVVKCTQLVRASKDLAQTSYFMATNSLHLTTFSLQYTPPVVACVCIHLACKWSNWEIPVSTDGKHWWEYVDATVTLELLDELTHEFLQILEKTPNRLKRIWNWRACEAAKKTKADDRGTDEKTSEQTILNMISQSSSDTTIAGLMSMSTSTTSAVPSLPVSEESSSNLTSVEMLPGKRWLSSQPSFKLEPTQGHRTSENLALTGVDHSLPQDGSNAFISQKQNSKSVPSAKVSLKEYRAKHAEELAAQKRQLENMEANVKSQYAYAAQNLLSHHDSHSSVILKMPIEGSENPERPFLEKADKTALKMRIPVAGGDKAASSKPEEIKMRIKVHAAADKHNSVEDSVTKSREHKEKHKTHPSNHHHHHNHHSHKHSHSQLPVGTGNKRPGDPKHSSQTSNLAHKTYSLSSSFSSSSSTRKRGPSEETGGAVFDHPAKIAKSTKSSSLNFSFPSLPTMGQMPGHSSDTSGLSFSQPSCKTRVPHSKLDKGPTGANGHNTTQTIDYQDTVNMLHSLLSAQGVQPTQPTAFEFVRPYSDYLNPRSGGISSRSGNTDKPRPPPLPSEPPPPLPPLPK

C=C1C(=O)[C@]23[C@H](O)[C@H]1CC[C@H]2[C@@]12CO[C@]3(O)[C@@H](O)[C@@H]1C(C)(C)CC[C@@H]2O [Oridonin]
activity at 10 µM (CDK9/cyclin T1(h)): 59% | activity at 10 µM (MAPK2(h)): 82% | activity at 10 µM (PAK2(h)): 99% | activity at 10 µM (PAK1(h)): 110% | activity at 10 µM (IKKα(h)): 80% | activity at 10 µM (PKBα(h); 10 µM): 90% | activity at 10 µM (ROCK-II(h); 10 µM): 88% | activity at 10 µM (CDK6/cyclinD3(h)): 69% | activity at 10 µM (EGFR(h)): 91% | activity at 10 µM (MAPK1(h)): 63% | activity at 10 µM (cSRC(h)): 59% | activity at 10 µM (JAK1(h)): 75% | activity at 10 µM (AMPKα2(h); 10 µM): 72% | activity at 10 µM (JNK1α1(h); 10 µM): 107% | activity at 10 µM (PAK4(h)): 86% | activity at 10 µM (SAPK4(h); 10 µM): 106% | activity at 10 µM (FAK(h); 10 µM): 76% | activity at 10 µM (p70S6K(h)): 53% | activity at 10 µM (JAK2(h); 10 µM): 90% | activity at 10 µM (CDK2/cyclinA(h)): 67% | activity at 10 µM (PDGFRβ(h); 10 µM): 94% | activity at 10 µM (JNK3(h); 10 µM): 54% | activity at 10 µM (MEK1(h)): 92% | activity at 10 µM (SAPK3(h); 10 µM): 122% | activity at 10 µM (CDK3/cyclinE(h)): 70% | activity at 10 µM (ROCK-I(h); 10 µM): 86%

COc1cc2oc(-c3ccc(O)c(O)c3)cc(=O)c2c(O)c1OC [Cirsiliol]
activity at 10 µM (CDK9/cyclin T1(h)): 98% | activity at 10 µM (MAPK2(h)): 114% | activity at 10 µM (GSK3β(h); 10 µM): 115% | activity at 10 µM (FGFR1(h); 10 µM): 103% | activity at 10 µM (PAK2(h)): 111% | activity at 10 µM (PAK1(h)): 104% | activity at 10 µM (B-Raf(h); 10 µM): 104% | activity at 10 µM (IKKα(h)): 102% | activity at 10 µM (Pim-1(h); 10 µM): 112% | activity at 10 µM (CDK6/cyclinD3(h)): 101% | activity at 10 µM (EGFR(h)): 98% | activity at 10 µM (MAPK1(h)): 103% | activity at 10 µM (cSRC(h)): 133% | activity at 10 µM (JAK1(h)): 99% | activity at 10 µM (PAK4(h)): 104% | activity at 10 µM (c-RAF(h); 10 µM): 104% | activity at 10 µM (p70S6K(h)): 95% | activity at 10 µM (CDK2/cyclinA(h)): 91% | activity at 10 µM (EGFR(T790M,L858R)(h); 10 µM): 101% | activity at 10 µM (MEK1(h)): 105% | activity at 10 µM (CDK3/cyclinE(h)): 97%

COc1ccc(CCc2cc(OC)c(OC)c(OC)c2)cc1O [Erianin]
activity at 0.1 µM (CDK9/cyclin T1(h)): 97% | activity at 0.1 µM (MAPK2(h)): 104% | activity at 0.1 µM (GSK3β(h)): 99% | activity at 0.1 µM (FGFR1(h)): 118% | activity at 0.1 µM (PAK2(h)): 107% | activity at 0.1 µM (PAK1(h)): 109% | activity at 0.1 µM (B-Raf(h)): 103% | activity at 0.1 µM (IKKα(h)): 108% | activity at 0.1 µM (PKBα(h)): 105% | activity at 0.1 µM (Pim-1(h)): 98% | activity at 0.1 µM (ROCK-II(h)): 112% | activity at 0.1 µM (EGFR(h)): 105% | activity at 0.1 µM (MAPK1(h)): 92% | activity at 0.1 µM (JAK1(h)): 117% | activity at 0.1 µM (AMPKα2(h)): 118% | activity at 0.1 µM (JNK1α1(h)): 101% | activity at 0.1 µM (PAK4(h)): 93% | activity at 0.1 µM (c-RAF(h)): 85% | activity at 0.1 µM (SAPK4(h)): 103% | activity at 0.1 µM (FAK(h)): 89% | activity at 0.1 µM (JAK2(h)): 107% | activity at 0.1 µM (CDK2/cyclinA(h)): 94% | activity at 0.1 µM (PDGFRβ(h)): 133% | activity at 0.1 µM (JNK3(h)): 111% | activity at 0.1 µM (EGFR(T790M,L858R)(h)): 120% | activity at 0.1 µM (MEK1(h)): 99% | activity at 0.1 µM (SAPK3(h)): 112% | activity at 0.1 µM (ROCK-I(h)): 125%
